Results taken from PubChem BioAssay (NCI).
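Where inhibition never reached the appropriate level, the endpoint shown equals the highest concentration tested. Otherwise, values were interpolated linearly from a five-concentration, 48-hour dose response in 96-well plates. Abbreviation: GI50, concentration required for 50% inhibition of growth. TGI is the concentration that stops growth completely.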

Key:
Experiment in all cases: DTP human tumour cell line panel, 48 h
SF-268 CNS = tested on: SF-268 CNS
HOP-92 NSCLC = tested on: HOP-92 NSCLC
UACC-257 melanoma = tested on: UACC-257 melanoma
MDA-MB-231 breast = tested on: MDA-MB-231 breast
U251 CNS = tested on: U251 CNS
ACHN renal = tested on: ACHN renal
DU-145 prostate = tested on: DU-145 prostate
HT29 colon = tested on: HT29 colon
T-47D breast = tested on: T-47D breast
SNB-19 CNS = tested on: SNB-19 CNS

Structure (SMILES)	GI50 (SF-268 CNS)	TGI (SF-268 CNS)	GI50 (HOP-92 NSCLC)	TGI (HOP-92 NSCLC)	GI50 (UACC-257 melanoma)	TGI (UACC-257 melanoma)	GI50 (MDA-MB-231 breast)	TGI (MDA-MB-231 breast)	GI50 (U251 CNS)	TGI (U251 CNS)	GI50 (ACHN renal)	TGI (ACHN renal)	GI50 (DU-145 prostate)	TGI (DU-145 prostate)	GI50 (HT29 colon)	TGI (HT29 colon)	GI50 (T-47D breast)	TGI (T-47D breast)	GI50 (SNB-19 CNS)	TGI (SNB-19 CNS)
Cc1cc(Nc2c3ccccc3nc3ccccc23)ccc1NS(C)(=O)=O	4.66 µM	19.2 µM	0.758 µM	5.69 µM	2.41 µM	9.58 µM	4.35 µM	19.7 µM	3.17 µM	14 µM	2.96 µM	12.5 µM	4.87 µM	19.9 µM	3.38 µM	12.8 µM	5.51 µM	24.5 µM	5.65 µM	35.9 µM
Clc1ccc(C2=Nn3c(nnc3-c3cc(Cl)cc(Cl)c3Cl)SC2)cc1	16.5 µM	> 100 µM	19.6 µM	65 µM	33.2 µM	> 100 µM	23.3 µM	97.1 µM	12.7 µM	28.3 µM	15.5 µM	45.5 µM	34.2 µM	> 100 µM	9.26 µM	> 100 µM	> 100 µM	> 100 µM	15.6 µM	36.2 µM
OC(COc1ccc(F)cc1)Cn1cnc2c(Cl)ncnc21 (stereo not given)	97.4 µM	> 100 µM	> 100 µM	> 100 µM	46.8 µM	> 100 µM	64.7 µM	> 100 µM	> 100 µM	> 100 µM	62.4 µM	> 100 µM	> 100 µM	> 100 µM	> 100 µM	> 100 µM	> 100 µM	> 100 µM	> 100 µM	> 100 µM
C[C@@H](CN1CC(=O)NC(=O)C1)N1CC(=O)NC(=O)C1	–	1160 µM	–	908 µM	–	2390 µM	–	679 µM	–	839 µM	–	753 µM	–	1430 µM	–	950 µM	–	1020 µM	–	1370 µM
Cc1cc(O)c(C2=NN(c3ccc(S(N)(=O)=O)cc3)C(c3ccc(N(C)C)cc3)C2)c(C)c1Cl (stereo not given)	18.7 µM	37.2 µM	10.3 µM	23.6 µM	26.3 µM	63.1 µM	11 µM	27.2 µM	11.8 µM	26.9 µM	14.9 µM	30.6 µM	19.2 µM	38.4 µM	10.9 µM	25.8 µM	5.72 µM	19.7 µM	22.2 µM	62.6 µM
CC(C)CC(=O)Nc1n[nH]c2c1CN(C(=O)C1CCN(C)CC1)C2(C)C	1.9 µM	> 10 µM	0.451 µM	7.54 µM	1.19 µM	> 10 µM	0.894 µM	> 10 µM	0.439 µM	> 10 µM	> 10 µM	> 10 µM	1.6 µM	> 10 µM	0.79 µM	> 10 µM	1.59 µM	9.54 µM	1.05 µM	> 10 µM
O=C(Nc1ccccc1O)c1ccc(CNc2ccnc(C(F)(F)F)c2)cc1	4.55 µM	26.3 µM	0.699 µM	15.4 µM	8.4 µM	> 100 µM	9.29 µM	50.6 µM	4.73 µM	> 100 µM	2.59 µM	> 100 µM	3.38 µM	19.4 µM	6.42 µM	> 100 µM	2.5 µM	24.8 µM	10.4 µM	33.9 µM
O=C(/C=N/O)Nc1cc(Cl)c(Cl)cc1Cl	–	> 100 µM	–	> 100 µM	–	87.4 µM	–	60 µM	–	> 100 µM	–	> 100 µM	–	> 100 µM	–	> 100 µM	–	95.5 µM	–	> 100 µM
CN1CCN(c2ccc(Nc3nc(N)c(C(=O)c4ccc5c(c4)OCCO5)s3)cc2)CC1	3.84 µM	10.5 µM	0.204 µM	3.5 µM	3.97 µM	12.6 µM	3.22 µM	9.94 µM	2.83 µM	11 µM	1.85 µM	6.57 µM	4.34 µM	16.5 µM	2.68 µM	11.7 µM	3.69 µM	9.7 µM	4.14 µM	24.3 µM
